Experimental data reported in ChEMBL document CHEMBL1649303, “Effects of subinhibitory concentrations of antibiotics on colonization factor expression by moxifloxacin-susceptible and moxifloxacin-resistant Clostridium difficile strains” (2009).
≈ marks a conversion by molar mass, not a printed value.

Experiments:
Assay type in all cases: functional
[1] = tested on: Clostridioides difficile; experiment: Antimicrobial activity against Clostridium difficile CD196 by broth dilution method
[2] = tested on: Clostridioides difficile; experiment: Antimicrobial activity against Clostridium difficile ATCC 43603 by broth dilution method
[3] = tested on: Clostridioides difficile; experiment: Antimicrobial activity against Clostridium difficile CD07-259 by broth dilution method
[4] = tested on: Clostridioides difficile; experiment: Antimicrobial activity against Clostridium difficile 6269 by broth dilution method
[5] = tested on: Clostridioides difficile; experiment: Antimicrobial activity against Clostridium difficile 6425 by broth dilution method
[6] = tested on: Clostridioides difficile; experiment: Upregulation of cwp84 gene expression in Clostridium difficile ATCC 43603 at 0.5 times MIC by real-time PCR analysis relative to control
[7] = tested on: Clostridioides difficile; experiment: Upregulation of slpA gene expression in Clostridium difficile ATCC 43603 at 0.5 times MIC by real-time PCR analysis relative to control
[8] = tested on: Clostridioides difficile; experiment: Upregulation of fbp68 gene expression in Clostridium difficile ATCC 43603 at 0.5 times MIC by real-time PCR analysis relative to control
[9] = tested on: Clostridioides difficile; experiment: Upregulation of cwp84 gene expression in Clostridium difficile ATCC 43603-M1 at 0.5 times MIC by real-time PCR analysis relative to control
[10] = tested on: Clostridioides difficile; experiment: Upregulation of slpA gene expression in Clostridium difficile ATCC 43603-M1 at 0.5 times MIC by real-time PCR analysis relative to control
[11] = tested on: Clostridioides difficile; experiment: Upregulation of fbp68 gene expression in Clostridium difficile ATCC 43603-M1 at 0.5 times MIC by real-time PCR analysis relative to control
[12] = tested on: Clostridioides difficile; experiment: Induction of Cwp84 protease expression in Clostridium difficile 6425 at 0.5 times MIC by immunoblot analysis
[13] = tested on: Clostridioides difficile; experiment: Induction of Cwp84 protease expression in Clostridium difficile ATCC 43603-M1 at 0.5 times MIC by immunoblot analysis
[14] = tested on: Clostridioides difficile; experiment: Antimicrobial activity against Clostridium difficile ATCC 43603-M1 by broth dilution method
[15] = Antimicrobial activity against Clostridium difficile CD196 M1 by broth dilution method; conditions: Clostridioides difficile
[16] = tested on: Clostridioides difficile; experiment: Upregulation of slpA gene expression in Clostridium difficile 6425 at 0.5 times MIC by real-time PCR analysis relative to control
[17] = tested on: Clostridioides difficile; experiment: Upregulation of slpA gene expression in Clostridium difficile CD07-259 at 0.5 times MIC by real-time PCR analysis relative to control

Row | Structure (SMILES) | MIC [1] | MIC [2] | MIC [3] | MIC [4] | MIC [5] | fold change (FC) [6] | fold change (FC) [7] | fold change (FC) [8] | fold change (FC) [9] | fold change (FC) [10] | fold change (FC) [11] | Activity [12] | Activity [13] | MIC [14] | MIC [15] | fold change (FC) [16] | fold change (FC) [17]
1 | CCC[C@@H]1C[C@@H](C(=O)N[C@@H]([C@H]2O[C@H](SC)[C@H](O)[C@@H](O)[C@H]2O)[C@H](C)Cl)N(C)C1 [CLINDAMYCIN] | 128 mg/L (≈ 301 µM) | 4 mg/L (≈ 9.41 µM) | 4 mg/L (≈ 9.41 µM) | 1 mg/L (≈ 2.35 µM) | 128 mg/L (≈ 301 µM) | – | – | – | – | – | – | – | – | – | – | – | –
2 | CC1COc2c(N3CCN(C)CC3)c(F)cc3c(=O)c(C(=O)O)cn1c23 (configuration not stated) [OFLOXACIN] | 8 mg/L (≈ 22.1 µM) | 8 mg/L (≈ 22.1 µM) | 256 mg/L (≈ 708 µM) | 32 mg/L (≈ 88.6 µM) | 256 mg/L (≈ 708 µM) | 3.2 | 3.9 | 4.8 | 67.4 | 32.8 | 2.1 | 130% | 25% | 256 mg/L (≈ 708 µM) | 128 mg/L (≈ 354 µM) | 4 | 22
3 | CC1(C)S[C@@H]2[C@H](NC(=O)[C@H](N)c3ccccc3)C(=O)N2[C@H]1C(=O)O [AMPICILLIN] | 8 mg/L (≈ 22.9 µM) | 2 mg/L (≈ 5.72 µM) | 4 mg/L (≈ 11.4 µM) | 2 mg/L (≈ 5.72 µM) | 4 mg/L (≈ 11.4 µM) | – | – | – | – | – | – | – | – | – | – | – | –
